These are literature values, as cited in patent publication US20260207579A1, “VITAMIN B SUPPLEMENTATION TO TREAT PITUITARY PARS INTERMEDIA DYSFUNCTION (PPID) IN EQUIDS” (MARS INCORPORATED, priority 2022, published 2026).

Counter-ions that a name gives are not always drawn.

The conditions of data set [1]: 3 g/day, mares, mean BW of ~500 kg.
The test system of the next data set is brain cells. To be noted: species other than the horse.
For data set [2] the following is noted: 5 g/day, horses.
For data set [3], the system named is adult Thoroughbred horses. To be noted: 3 g/day for 6 weeks, exercising adult Thoroughbred horses likely around 500 kg.
The test system of a further data set is dopamine production. To be noted: over the long term, mice.
The next data set has as its system dementia. To be noted: humans with dementia and concurrent vitamin B12 deficiency.

Consider `O=C(O)c1cccnc1` [NA, nicotinic acid], for which, in data set [1], the “bioavailability of NAD+ precursors in the follicular fluid” value is “increased” and the “plasma concentrations of NAD+ precursors” value was “no apparent increase”. Further, the “intracellular NAD+ levels” value with brain cells was “increase”.
For the compound `N[C@@H](Cc1c[nH]c2ccccc12)C(=O)O` [Tryptophan, tryptophan], in the data set with horses, the behavioural effects entry is “both excitatory and sedative effects”. Besides, in the data set on horses (high doses), the toxicity result was “hemolytic anemia and symptoms of respiratory distress”.
Take `O=C(O)c1cccnc1` [niacin]: the “plasma and urine concentrations of NAD+ precursors” value in data set [2] is recorded as “increases”. For the same compound, in data set [3], the adverse effects result is “no measured adverse effects” and the “benefits as putative ergogenic aid” value is on record as “no apparent benefits”.
`NC(=O)c1ccc[n+]([C@@H]2O[C@H](CO)[C@@H](O)[C@H]2O)c1` [nicotinamide riboside]: in the data set on dopamine production, the dopamine production result is “may downregulate dopamine production”.
With `CCCN1C[C@H](CSC)C[C@@H]2c3cccc4[nH]cc(c34)C[C@H]21` [pergolide mesylate], the “clinical outcome in PPID” value with PPID is on record as “clinical improvement”.
For vitamin B12, the effect of supplementation entry in the data set with dementia is “beneficial”.
